Assay results published in ChEMBL document CHEMBL5726901, “Heterocyclic inhibitors of PTPN11” (2019).

Assay: pERK AlphaScreen Protocol: KYSE-520 cells (10 k cells/well) were grown in 384-well plate in 20 uL of medium (RPMI-1640, without phenol red, containing 10% FBS) at 37° C. with 5% CO2 overnight. DMSO (control) or increasing concentrations of compounds were diluted in medium, added to the 384-well plate (5 uL/well, final DMSO concentration of 1%), and cells were then incubated with compounds for 2 hr. Phospho-ERK levels were measured using phospho-ERK1/2 AlphaScreen SureFire (PerkinElmer, TGRESB10K) following manufacturer's recommendations. Dose-response curves were analyzed using IC50 regression curve fitting (GeneData Screener). Curves were normalized to a high control without inhibitor (DMSO only), and low control (1 μM selumetinib).
Settings: KYSE-520, 2 h

Row | SMILES | IC50
1 | COc1ccc(CNc2nccc(C(=O)c3ncc(N4CCC(C)([C@@H](C)N[S+]([O-])C(C)(C)C)CC4)nc3Cl)c2Cl)cc1 (some centres not stated) | 100 nM
2 | CC1(N)CCN(c2cnc3c(-c4cc(N)ccc4Cl)n[nH]c3n2)CC1 | 406 nM
